Laboratory results as given in ChEMBL document CHEMBL1135847, “Structure-activity relationship of linear peptide Bu-His-DPhe-Arg-Trp-Gly-NH(2) at the human melanocortin-1 and -4 receptors: arginine substitution” (Bioorg Med Chem Lett, 2002).

What was measured:
[1] = biological target: T1, Melanocyte-stimulating hormone receptor (Homo sapiens, UniProt Q01726); test: Agonist potency for human Melanocortin 1 receptor; type: functional
Target sequence in this assay (Q01726 whole entry): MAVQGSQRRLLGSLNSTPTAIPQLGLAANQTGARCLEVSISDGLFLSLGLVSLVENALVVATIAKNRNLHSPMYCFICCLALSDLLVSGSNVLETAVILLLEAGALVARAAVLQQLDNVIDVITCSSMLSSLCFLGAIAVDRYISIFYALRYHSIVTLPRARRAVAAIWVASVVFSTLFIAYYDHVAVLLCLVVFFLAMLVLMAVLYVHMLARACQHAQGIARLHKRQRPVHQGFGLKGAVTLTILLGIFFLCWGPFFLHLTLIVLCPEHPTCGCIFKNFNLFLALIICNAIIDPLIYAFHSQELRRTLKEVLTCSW

Melanocortin receptor 4 [2] = biological target: T2, Melanocortin receptor 4 (Homo sapiens, UniProt P32245); test: Agonist potency towards human Melanocortin 4 receptor; type: functional
T2 sequence (P32245 whole entry): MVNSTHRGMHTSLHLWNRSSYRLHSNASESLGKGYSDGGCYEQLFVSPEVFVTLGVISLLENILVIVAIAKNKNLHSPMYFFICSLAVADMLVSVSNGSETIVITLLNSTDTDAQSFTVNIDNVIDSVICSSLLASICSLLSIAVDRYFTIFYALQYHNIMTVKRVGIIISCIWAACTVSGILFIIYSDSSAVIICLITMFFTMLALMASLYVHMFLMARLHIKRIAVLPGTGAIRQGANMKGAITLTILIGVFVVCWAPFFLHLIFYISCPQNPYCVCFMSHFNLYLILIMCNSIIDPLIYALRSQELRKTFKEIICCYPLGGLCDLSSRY

Melanocortin receptor 4 [3] = biological target: T2, Melanocortin receptor 4; test: Agonist potency towards human Melanocortin 4 receptor at 50 uM; type: functional
[4] = pKa value was evaluated; type: physicochemical
[5] = biological target: T1, Melanocyte-stimulating hormone receptor; test: Agonist potency towards human Melanocortin 1 receptor at 50 uM; type: functional
Target sequence in this assay (Q01726 whole entry, looked up): as the sequence (Q01726 whole entry) above

Row | Compound | EC50 [1] | EC50 (Melanocortin receptor 4 [2]) | Activity (Melanocortin receptor 4 [3]) | pKa [4] | Activity [5]
1 | CCCCN[C@@H](Cc1c[nH]cn1)C(=O)N[C@H](Cc1ccccc1)C(=O)N[C@@H](CCCN)C(=O)N[C@@H](Cc1c[nH]c2ccccc12)C(=O)NCC(N)=O | 0.9 µM | 2.5 µM | – | – | –
2 | CCCCN[C@@H](Cc1c[nH]cn1)C(=O)N[C@H](Cc1ccccc1)C(=O)N[C@@H](CCCCNC(C)C)C(=O)N[C@@H](Cc1c[nH]c2ccccc12)C(=O)NCC(N)=O | 0.255 µM | – | 25% | – | –
3 | CCCCN[C@@H](Cc1c[nH]cn1)C(=O)N[C@H](Cc1ccccc1)C(=O)N[C@@H](Cc1c[nH]cn1)C(=O)N[C@@H](Cc1c[nH]c2ccccc12)C(=O)NCC(N)=O | 1.7 µM | 1.42 µM | – | – | –
4 | CCCCN[C@@H](Cc1c[nH]cn1)C(=O)N[C@H](Cc1ccccc1)C(=O)N[C@@H](CCCCN(C)C)C(=O)N[C@@H](Cc1c[nH]c2ccccc12)C(=O)NCC(N)=O | 0.06 µM | 1.67 µM | – | – | –
5 | CCCCN[C@@H](Cc1cnc[nH]1)C(=O)N[C@H](Cc1ccccc1)C(=O)N[C@@H](CCCN(C)C)C(=O)N[C@@H](Cc1c[nH]c2ccccc12)C(=O)NCC(N)=O | 0.35 µM | 3.28 µM | – | – | –
6 | CCCCN[C@@H](Cc1cnc[nH]1)C(=O)N[C@H](Cc1ccccc1)C(=O)N[C@@H](CCCNC(N)=NC#N)C(=O)N[C@@H](Cc1c[nH]c2ccccc12)C(=O)NCC(N)=O | 0.015 µM | 0.07 µM | – | ~0 | –
7 | CCCCN[C@@H](Cc1cnc[nH]1)C(=O)N[C@H](Cc1ccccc1)C(=O)N[C@@H](CCCCNCc1ccccc1)C(=O)N[C@@H](Cc1c[nH]c2ccccc12)C(=O)NCC(N)=O | 0.085 µM | 4.8 µM | – | – | –
8 | CCCCN[C@@H](Cc1c[nH]cn1)C(=O)N[C@H](Cc1ccccc1)C(=O)N[C@@H](CCC/N=C(/N)N[N+](=O)[O-])C(=O)N[C@@H](Cc1c[nH]c2ccccc12)C(=O)NCC(N)=O | – | – | 85% | – | 40%
9 | CCCCN[C@@H](Cc1cnc[nH]1)C(=O)N[C@H](Cc1ccccc1)C(=O)N[C@@H](CCCNC(=N)N)C(=O)N[C@@H](Cc1c[nH]c2ccccc12)C(=O)NCC(N)=O | 0.01 µM | 0.02 µM | – | – | –
10 | CCCCN[C@@H](Cc1cnc[nH]1)C(=O)N[C@H](Cc1ccccc1)C(=O)N[C@@H](CCC(=O)NC(=N)N)C(=O)N[C@@H](Cc1c[nH]c2ccccc12)C(=O)NCC(N)=O | 0.001 µM | 0.01 µM | – | ~7 | –
11 | CCCCN[C@@H](Cc1cnc[nH]1)C(=O)N[C@H](Cc1ccccc1)C(=O)N[C@@H](CCCNC(N)=O)C(=O)N[C@@H](Cc1c[nH]c2ccccc12)C(=O)NCC(N)=O | 0.95 µM | 0.76 µM | – | – | –
